# Values quoted from earlier work in patent US8207231B2, “Hepatitis A virucide” (Ecolab USA Inc., priority 1999, dated 2012).
# Tested on: hepatitis A
# Conditions: 1 percent and 2 percent concentration
smiles,measurement,value
Cc1ccc(S(=O)(=O)[N-]Cl)cc1.[Na+] [chloramine T],meets the requirements for activity against hepatitis A,meets the requirements for activity against hepatitis A
